According to publication PMC6753678, “Fueling Open Innovation for Malaria Transmission-Blocking Drugs: Hundreds of Molecules Targeting Early Parasite Mosquito Stages” (Frontiers in Microbiology, 2019):
Read-outs that look alike come from different tables or passages of the source.

What was measured:
[1] = tested on: P. falciparum female gametocytes; experiment: P. falciparum female gametogenesis assay (Pf FGAA); details: 1: YES; 0: NO
[2] = tested on: P. falciparum late stage (stages IV-V) gametocytes; experiment: P. falciparum late stage gametocyte ATP depletion assay (Pf GC-ATP); details: 1: YES; 0: NO
[3] = tested on: P. falciparum female gametocytes; design: method as in Miguel-Blanco et al 2017; details: TCAMS screen comparison; ref Miguel-Blanco et al 2017; read-out: Pf FGAA IC50; cited from earlier work
[4] = tested on: HepG2 cells; details: cited from earlier work
[5] = tested on: HepG2 cells; experiment: HepG2 cytotoxicity assay; details: HepG2 cytotoxicity unified across the three screens
Method in brief: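 HepG2 cells, 2,500 per well in MEM with 10% FBS and 1% NEAA, exposed to compounds for 48 h at 37°C, 5% CO2. Viability read by fluorescence; percent inhibition relative to 50 μM doxorubicin and DMSO controls.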

[6] = tested on: P. falciparum late stage (stages IV-V) gametocytes; design: method as in Almela et al 2016; details: TCAMS screen comparison; ref Almela et al 2016; read-out: Pf GCT ATP IC50; cited from earlier work
[7] = value reported with the Pf FGAA screen, ref Miguel-Blanco et al 2017
[8] = value reported with the Pf GCT ATP screen, ref Almela et al 2016

| Structure (SMILES) | Is compound selective in assay? Pf FGAA active? [1] | Is compound selective in assay? Pf GC-ATP active? [2] | IC50 [3] | HepG2 cytoxicity [4, 7] | HepG2 cytoxicity [4, 8] | Unified cytotox [5] | IC50 [6] |
| --- | --- | --- | --- | --- | --- | --- | --- |
| CCN(CC)CCCn1c(N)c(-c2nc3ccccc3[nH]2)c2nc(C#N)c(C#N)nc21 [TCMDC-123680] | 0 (0: NO) | 1 (1: YES) | 740 nM | 4.27 µM | 8.7 µM | 6.48 µM | 140 nM |
| COc1cc2nc(N3CCN(c4nc(N)c5cc(OC)c(OC)cc5n4)CC3)nc(N)c2cc1OC [TCMDC-123865] | 1 (1: YES) | 1 (1: YES) | 580 nM | 52.49 µM | >25 µM | 52.49 µM | 260 nM |
| [O-][s+]1c(Cl)c(-c2ccc(Cl)cc2)c2ccc(Cl)cc21 (stereo not shown) [TCMDC-124011] | 1 (1: YES) | 1 (1: YES) | 36.6 nM | 11.35 µM | 12.8 µM | 12.08 µM | 20 nM |
| C=CCN(C(=O)c1ccc(Cl)c([N+](=O)[O-])c1)c1nc(-c2ccccc2)cs1 [TCMDC-124436] | 1 (1: YES) | 1 (1: YES) | 130 nM | >100 µM | >25 µM | 100.00 µM | 110 nM |
| Cc1sc2ncnc(Sc3nnc(N)s3)c2c1C [TCMDC-124542] | 1 (1: YES) | 1 (1: YES) | 770 nM | 36.31 µM | >25 µM | 36.31 µM | 300 nM |
| COc1ccc(OC)c(-c2cccc(-c3cccc(NC(=O)c4ccc([N+](=O)[O-])o4)c3)n2)c1 [TCMDC-124799] | 0 (0: NO) | 0 (0: NO) | 960 nM | 3.63 µM | 6.15 µM | 4.89 µM | 780 nM |
| O=C(c1ccc([N+](=O)[O-])o1)N1CCC(Cc2ccc(C(F)(F)F)cc2)CC1 [TCMDC-124805] | 1 (1: YES) | 1 (1: YES) | 160 nM | 27.05 µM | 14.11 µM | 20.58 µM | 260 nM |
| CCOc1ccc2nc3cc(NC(=O)c4ccco4)ccc3c(N)c2c1 [TCMDC-125004] | 0 (0: NO) | 1 (1: YES) | 4550 nM | 25.15 µM | 10.3 µM | 17.72 µM | 190 nM |
| Cc1ccccc1OCC(O)CNC1CCC(NCC(O)COc2ccccc2C)CC1 (stereo not shown) [TCMDC-125142] | 0 (0: NO) | 1 (1: YES) | 1110 nM | 4.07 µM | 3.78 µM | 3.93 µM | 140 nM |
| Cc1c(Cl)cccc1N=C(S)NN=Cc1ccccn1 [TCMDC-125487] | 1 (1: YES) | 1 (1: YES) | 28 nM | >100 µM | >25 µM | 100.00 µM | 270 nM |
| Fc1ccc(NC(S)=NN=Cc2ccccn2)cc1 [TCMDC-125521] | 1 (1: YES) | 1 (1: YES) | 27.1 nM | >100 µM | 23.35 µM | 100.00 µM | 120 nM |
| SC(=Nc1ccc(Cl)c(Cl)c1)NN=Cc1ccccn1 [TCMDC-125522] | 1 (1: YES) | 1 (1: YES) | 80 nM | 3.47 µM | 9.1 µM | 6.28 µM | 70 nM |
| c1ccc2sc(Sc3ncnc4sccc34)nc2c1 [TCMDC-125539] | 1 (1: YES) | 1 (1: YES) | 140 nM | >100 µM | >25 µM | 100.00 µM | 500 nM |
